ChEMBL document CHEMBL1201861, “Genomics of Drug Sensitity in Cancer screening data, Wellcome Trust Sanger Institute”

Legend:
Assay in all cases: cells
MEG-01 = format: functional, cell-based; conditions: Homo sapiens;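 also: growth inhibition of MEG-01 cells, read out by a cell viability assay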
Description: SANGER: Inhibition of human MEG-01 cell growth in a cell viability assay.

NCI-H2122 = format: functional, cell-based, Homo sapiens; conditions: Homo sapiens, NCI-H2122;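 also: growth inhibition of the cells, read out with a cell viability assay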
Description: SANGER: Inhibition of human NCI-H2122 cell growth in a cell viability assay.

ALL-PO = format: functional, cell-based; conditions: Homo sapiens;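 also: growth inhibition of ALL-PO cells, read out by a cell viability assay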
Description: SANGER: Inhibition of human ALL-PO cell growth in a cell viability assay.

Huh-7 = format: functional, cell-based, Homo sapiens; conditions: Homo sapiens, Huh-7;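 also: HuH-7 cell growth inhibition, read out with a cell viability assay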
Description: SANGER: Inhibition of human HuH-7 cell growth in a cell viability assay.

D283 Med = format: functional, cell-based, Homo sapiens; conditions: Homo sapiens, D283 Med
Description: SANGER: Inhibition of human D-283MED cell growth in a cell viability assay.

VA-ES-BJ = format: functional, cell-based, Homo sapiens; conditions: Homo sapiens, VA-ES-BJ;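 also: growth inhibition of the VA-ES-BJ cell line, read out by a cell viability assay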
Description: SANGER: Inhibition of human VA-ES-BJ cell growth in a cell viability assay.

RPMI-2650 = format: functional, cell-based, Homo sapiens; conditions: Homo sapiens, RPMI-2650
Description: SANGER: Inhibition of human RPMI-2650 cell growth in a cell viability assay.

GAK = format: functional, cell-based, Homo sapiens; conditions: Homo sapiens, GAK;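 also: cell growth inhibition read out by a cell viability assay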
Description: SANGER: Inhibition of human GAK cell growth in a cell viability assay.

CAL-120 = format: functional, cell-based, Homo sapiens; conditions: Homo sapiens, CAL-120;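 also: cell growth inhibition, read out as cell viability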
Description: SANGER: Inhibition of human CAL-120 cell growth in a cell viability assay.

C3A = format: functional, cell-based, Homo sapiens; conditions: Homo sapiens, C3A;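 also: growth inhibition of C3A human cells, quantified with a cell viability readout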
Description: SANGER: Inhibition of human C3A cell growth in a cell viability assay.

HCC2218 = format: functional, cell-based; conditions: Homo sapiens;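 also: cell viability assay read-out, with IC50 given as the concentration that inhibits growth of the cell line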
Description: SANGER: Inhibition of human HCC2218 cell growth in a cell viability assay.

SK-PN-DW = format: functional, cell-based; conditions: Homo sapiens;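 also: growth inhibition measured with a viability assay on these cells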
Description: SANGER: Inhibition of human SK-PN-DW cell growth in a cell viability assay.

MKN-1 = format: functional, cell-based, Homo sapiens; conditions: Homo sapiens, MKN-1;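 also: growth inhibition of human MKN1 cells, read out by a cell viability measurement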
Description: SANGER: Inhibition of human MKN1 cell growth in a cell viability assay.

LAN-6 = format: functional, cell-based, Homo sapiens; conditions: Homo sapiens, LAN-6;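 also: growth inhibition of LAN-6 cells, determined with a cell viability assay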
Description: SANGER: Inhibition of human LAN-6 cell growth in a cell viability assay.

639-V = format: functional, cell-based, Homo sapiens; conditions: Homo sapiens, 639-V;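 also: growth inhibition of 639-V cells, read out with a cell viability assay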
Description: SANGER: Inhibition of human 639-V cell growth in a cell viability assay.

EW-11 = format: functional, cell-based, Homo sapiens; conditions: Homo sapiens, EW-11;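 also: growth inhibition of human EW-11 cells, measured with a cell viability assay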
Description: SANGER: Inhibition of human EW-11 cell growth in a cell viability assay.

DK-MG = format: functional, cell-based, Homo sapiens; conditions: Homo sapiens, DK-MG;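 also: growth inhibition of DK-MG cells, read out with a cell viability assay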
Description: SANGER: Inhibition of human DK-MG cell growth in a cell viability assay.

SAOS-2 = format: functional, cell-based, Homo sapiens; conditions: Homo sapiens, SAOS-2;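 also: growth inhibition of human Saos-2 cells determined by a cell viability assay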
Description: SANGER: Inhibition of human Saos-2 cell growth in a cell viability assay.

MDA-MB-453 = format: functional, cell-based, Homo sapiens; conditions: Homo sapiens, MDA-MB-453
Description: SANGER: Inhibition of human MDA-MB-453 cell growth in a cell viability assay.

SBC-1 = format: functional, cell-based; conditions: Homo sapiens;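 also: cell viability assay measuring growth inhibition of the SBC-1 cell line, IC50 being the concentration that halves growth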
Description: SANGER: Inhibition of human SBC-1 cell growth in a cell viability assay.

IA-LM = format: functional, cell-based, Homo sapiens; conditions: Homo sapiens, IA-LM;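 also: cell viability assay measuring growth inhibition of human IA-LM cells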
Description: SANGER: Inhibition of human IA-LM cell growth in a cell viability assay.

BHT-101 = format: functional, cell-based, Homo sapiens; conditions: Homo sapiens, BHT-101
MC-IXC = format: functional, cell-based, Homo sapiens; conditions: Homo sapiens, MC-IXC;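 also: growth inhibition of MC-IXC cells, read out with a cell viability assay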
Description: SANGER: Inhibition of human MC-IXC cell growth in a cell viability assay.

NCI-H2347 = format: functional, cell-based, Homo sapiens; conditions: Homo sapiens, NCI-H2347;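 also: growth inhibition of the cell line, read out with a cell viability assay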
Description: SANGER: Inhibition of human NCI-H2347 cell growth in a cell viability assay.

OVCAR-5 = format: functional, cell-based, Homo sapiens; conditions: Homo sapiens, OVCAR-5;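 also: growth inhibition of human OVCAR-5 cells, read out with a cell viability assay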
Description: SANGER: Inhibition of human OVCAR-5 cell growth in a cell viability assay.

CAL-51 = format: functional, cell-based, Homo sapiens; conditions: Homo sapiens, CAL-51;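 also: human CAL-51 cell line, growth inhibition read out via a cell viability assay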
Description: SANGER: Inhibition of human CAL-51 cell growth in a cell viability assay.

NCI-H1437 = format: functional, cell-based, Homo sapiens; conditions: Homo sapiens, NCI-H1437;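 also: growth inhibition of human NCI-H1437 cells, read out by a cell viability assay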
Description: SANGER: Inhibition of human NCI-H1437 cell growth in a cell viability assay.

HCC1954 = format: functional, cell-based, Homo sapiens; conditions: Homo sapiens, HCC1954;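 also: growth inhibition of human HCC1954 cells, read out with a cell viability assay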
Description: SANGER: Inhibition of human HCC1954 cell growth in a cell viability assay.

MFH-ino = format: functional, cell-based; conditions: Homo sapiens;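 also: growth inhibition of human MFH-ino cells, read out by a cell viability assay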
Description: SANGER: Inhibition of human MFH-ino cell growth in a cell viability assay.

SN12C = format: functional, cell-based, Homo sapiens; conditions: Homo sapiens, SN12C;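 also: growth inhibition of human SN12C cells, measured by a cell viability assay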
Description: SANGER: Inhibition of human SN12C cell growth in a cell viability assay.

A4-Fuk = format: functional, cell-based; conditions: Homo sapiens;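 also: growth inhibition of A4-Fuk cells, read out by a cell viability assay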
Description: SANGER: Inhibition of human A4-Fuk cell growth in a cell viability assay.

SNU-449 = format: functional, cell-based, Homo sapiens; conditions: Homo sapiens, SNU-449
Description: SANGER: Inhibition of human SNU-449 cell growth in a cell viability assay.

SF-268 = format: functional, cell-based, Homo sapiens; conditions: Homo sapiens, SF-268;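 also: growth inhibition of SF-268 cells determined with a cell viability assay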
Description: SANGER: Inhibition of human SF268 cell growth in a cell viability assay.

NY = format: functional, cell-based, Homo sapiens; conditions: Homo sapiens, NY
Description: SANGER: Inhibition of human NY cell growth in a cell viability assay.

SK-LMS-1 = format: functional, cell-based, Homo sapiens; conditions: Homo sapiens, SK-LMS-1;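 also: growth inhibition of human SK-LMS-1 cells, read out with a cell viability assay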
Description: SANGER: Inhibition of human SK-LMS-1 cell growth in a cell viability assay.

KLE = format: functional, cell-based, Homo sapiens; conditions: Homo sapiens, KLE;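 also: growth inhibition of human KLE cells, read out with a cell viability assay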
Description: SANGER: Inhibition of human KLE cell growth in a cell viability assay.

A388 = format: functional, cell-based, Homo sapiens; conditions: Homo sapiens, A388;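 also: growth inhibition of human A388 cells, read out with a cell viability assay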
Description: SANGER: Inhibition of human A388 cell growth in a cell viability assay.

KE-37 = format: functional, cell-based; conditions: Homo sapiens;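 also: growth inhibition of KE-37 cells, read out with a cell viability assay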
Description: SANGER: Inhibition of human KE-37 cell growth in a cell viability assay.

AN3-CA = format: functional, cell-based; conditions: Homo sapiens;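 also: growth inhibition of human AN3-CA cells measured by a cell viability assay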
Description: SANGER: Inhibition of human AN3-CA cell growth in a cell viability assay.

WM-115 = format: functional, cell-based, Homo sapiens; conditions: Homo sapiens, WM-115
Description: SANGER: Inhibition of human WM-115 cell growth in a cell viability assay.

RD = format: functional, cell-based, Homo sapiens; conditions: Homo sapiens, RD
Description: SANGER: Inhibition of human RD cell growth in a cell viability assay.

EW-3 = format: functional, cell-based; conditions: Homo sapiens;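 also: cell viability assay read-out, IC50 reflects inhibition of growth of the EW-3 cells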
Description: SANGER: Inhibition of human EW-3 cell growth in a cell viability assay.

IST-SL1 = format: functional, cell-based, Homo sapiens; conditions: Homo sapiens, IST-SL1;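 also: growth inhibition of human IST-SL1 cells, read out with a cell viability assay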
Description: SANGER: Inhibition of human IST-SL1 cell growth in a cell viability assay.

5637 = format: functional, cell-based, Homo sapiens; conditions: Homo sapiens
Description: SANGER: Inhibition of human 5637 cell growth in a cell viability assay.

COLO-800 = format: functional, cell-based, Homo sapiens; conditions: Homo sapiens, COLO-800;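 also: growth inhibition of COLO-800 cells, read out with a cell viability assay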
Description: SANGER: Inhibition of human COLO-800 cell growth in a cell viability assay.

ES6 = format: functional, cell-based, Homo sapiens; conditions: Homo sapiens, ES6;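 also: growth inhibition of human ES6 cells, read out with a cell viability assay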
Description: SANGER: Inhibition of human ES6 cell growth in a cell viability assay.

HCC1937 = format: functional, cell-based, Homo sapiens; conditions: Homo sapiens, HCC1937;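 also: growth inhibition measured with a cell viability read-out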
Description: SANGER: Inhibition of human HCC1937 cell growth in a cell viability assay.

SW982 = format: functional, cell-based; conditions: Homo sapiens;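 also: growth inhibition of SW982 cells, read out with a cell viability assay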
Description: SANGER: Inhibition of human SW982 cell growth in a cell viability assay.

KS-1 = format: functional, cell-based, Homo sapiens; conditions: Homo sapiens, KS-1;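 also: growth inhibition of KS-1 cells, read out with a cell viability assay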
Description: SANGER: Inhibition of human KS-1 cell growth in a cell viability assay.

LS-123 = format: functional, cell-based, Homo sapiens; conditions: Homo sapiens, LS-123
CAMA-1 = format: functional, cell-based, Homo sapiens; conditions: Homo sapiens, CAMA-1;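 also: growth inhibition of CAMA-1 cells, read out with a cell viability assay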
Description: SANGER: Inhibition of human CAMA-1 cell growth in a cell viability assay.

NCI-H1581 = format: functional, cell-based, Homo sapiens; conditions: Homo sapiens, NCI-H1581;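 also: cell growth inhibition read out by a viability assay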
Description: SANGER: Inhibition of human NCI-H1581 cell growth in a cell viability assay.

Question: How did the IC50 (MEG-01) turn out when `C=CCc1cccc(/C=N/NC(=O)CN2CCN(Cc3ccccc3)CC2)c1O` [PAC-1] was run?
Answer: > 2560 nM

Question: What about the IC50 (NCI-H2122) of the same compound?
Answer: > 2560 nM

Question: And the IC50 (ALL-PO)?
Answer: > 2560 nM

Question: What about the IC50 (Huh-7) of the same compound?
Answer: > 2560 nM

Question: And the IC50 (D283 Med)?
Answer: > 2560 nM

Question: And the IC50 (VA-ES-BJ)?
Answer: > 2560 nM

Question: And the IC50 (RPMI-2650)?
Answer: > 2560 nM

Question: What about the IC50 (GAK) of the same compound?
Answer: > 2560 nM

Question: What about the IC50 (CAL-120) of the same compound?
Answer: > 2560 nM

Question: And the IC50 (C3A)?
Answer: > 2560 nM

Question: What about the IC50 (HCC2218) of the same compound?
Answer: > 2560 nM

Question: And the IC50 (SK-PN-DW)?
Answer: > 2560 nM

Question: What about the IC50 (MKN-1) of the same compound?
Answer: > 2560 nM

Question: And the IC50 (LAN-6)?
Answer: > 2560 nM

Question: And the IC50 (639-V)?
Answer: > 2560 nM

Question: What about the IC50 (EW-11) of the same compound?
Answer: > 2560 nM

Question: What about the IC50 (DK-MG) of the same compound?
Answer: > 2560 nM

Question: And the IC50 (SAOS-2)?
Answer: > 2560 nM

Question: What about the IC50 (MDA-MB-453) of the same compound?
Answer: > 2560 nM

Question: What about the IC50 (SBC-1) of the same compound?
Answer: > 2560 nM

Question: What about the IC50 (IA-LM) of the same compound?
Answer: > 2560 nM

Question: What about the IC50 (BHT-101) of the same compound?
Answer: > 2560 nM

Question: What about the IC50 (MC-IXC) of the same compound?
Answer: > 2560 nM

Question: What about the IC50 (NCI-H2347) of the same compound?
Answer: > 2560 nM

Question: What about the IC50 (OVCAR-5) of the same compound?
Answer: > 2560 nM

Question: And the IC50 (CAL-51)?
Answer: > 2560 nM

Question: What about the IC50 (NCI-H1437) of the same compound?
Answer: 2230 nM

Question: And the IC50 (HCC1954)?
Answer: > 2560 nM

Question: And the IC50 (MFH-ino)?
Answer: > 2560 nM

Question: What about the IC50 (SN12C) of the same compound?
Answer: > 2560 nM

Question: What about the IC50 (A4-Fuk) of the same compound?
Answer: > 2560 nM

Question: What about the IC50 (SNU-449) of the same compound?
Answer: > 2560 nM

Question: And the IC50 (SF-268)?
Answer: > 2560 nM

Question: What about the IC50 (NY) of the same compound?
Answer: > 2560 nM

Question: What about the IC50 (SK-LMS-1) of the same compound?
Answer: > 2560 nM

Question: And the IC50 (KLE)?
Answer: > 2560 nM

Question: What about the IC50 (A388) of the same compound?
Answer: > 2560 nM

Question: And the IC50 (KE-37)?
Answer: 215 nM

Question: And the IC50 (AN3-CA)?
Answer: > 2560 nM

Question: And the IC50 (WM-115)?
Answer: > 2560 nM

Question: And the IC50 (RD)?
Answer: > 2560 nM

Question: What about the IC50 (EW-3) of the same compound?
Answer: > 2560 nM

Question: What about the IC50 (IST-SL1) of the same compound?
Answer: > 2560 nM

Question: What about the IC50 5637 of the same compound?
Answer: > 2560 nM

Question: What about the IC50 (COLO-800) of the same compound?
Answer: > 2560 nM

Question: What about the IC50 (ES6) of the same compound?
Answer: 1490 nM

Question: What about the IC50 (HCC1937) of the same compound?
Answer: > 2560 nM

Question: And the IC50 (SW982)?
Answer: > 2560 nM

Question: What about the IC50 (KS-1) of the same compound?
Answer: > 2560 nM

Question: And the IC50 (LS-123)?
Answer: > 2560 nM

Question: What about the IC50 (CAMA-1) of the same compound?
Answer: > 2560 nM

Question: What about the IC50 (NCI-H1581) of the same compound?
Answer: > 2560 nM

Question: Which IC50 (MEG-01) does the source give for `Cc1ccc(Nc2nccc(N(C)c3ccc4c(C)n(C)nc4c3)n2)cc1S(N)(=O)=O` [PAZOPANIB] here?
Answer: > 8000 nM

Question: And the IC50 (NCI-H2122)?
Answer: > 8000 nM

Question: What about the IC50 (ALL-PO) of the same compound?
Answer: > 8000 nM

Question: What about the IC50 (Huh-7) of the same compound?
Answer: 7690 nM

Question: And the IC50 (D283 Med)?
Answer: > 8000 nM

Question: What about the IC50 (VA-ES-BJ) of the same compound?
Answer: > 8000 nM

Question: What about the IC50 (RPMI-2650) of the same compound?
Answer: > 8000 nM

Question: And the IC50 (CAL-120)?
Answer: > 8000 nM

Question: And the IC50 (C3A)?
Answer: > 8000 nM

Question: And the IC50 (HCC2218)?
Answer: > 8000 nM

Question: What about the IC50 (SK-PN-DW) of the same compound?
Answer: > 8000 nM

Question: What about the IC50 (MKN-1) of the same compound?
Answer: > 8000 nM

Question: What about the IC50 (LAN-6) of the same compound?
Answer: > 8000 nM

Question: What about the IC50 (639-V) of the same compound?
Answer: > 8000 nM

Question: What about the IC50 (EW-11) of the same compound?
Answer: > 8000 nM

Question: What about the IC50 (DK-MG) of the same compound?
Answer: 5720 nM

Question: And the IC50 (SAOS-2)?
Answer: > 8000 nM

Question: What about the IC50 (MDA-MB-453) of the same compound?
Answer: > 8000 nM

Question: And the IC50 (SBC-1)?
Answer: > 8000 nM

Question: And the IC50 (IA-LM)?
Answer: 7930 nM

Question: What about the IC50 (BHT-101) of the same compound?
Answer: > 8000 nM

Question: What about the IC50 (MC-IXC) of the same compound?
Answer: 1120 nM

Question: What about the IC50 (NCI-H2347) of the same compound?
Answer: > 8000 nM

Question: And the IC50 (OVCAR-5)?
Answer: > 8000 nM

Question: What about the IC50 (CAL-51) of the same compound?
Answer: > 8000 nM

Question: What about the IC50 (NCI-H1437) of the same compound?
Answer: > 8000 nM

Question: What about the IC50 (HCC1954) of the same compound?
Answer: > 8000 nM

Question: What about the IC50 (MFH-ino) of the same compound?
Answer: > 8000 nM

Question: And the IC50 (SN12C)?
Answer: > 8000 nM

Question: What about the IC50 (A4-Fuk) of the same compound?
Answer: > 8000 nM

Question: What about the IC50 (SNU-449) of the same compound?
Answer: > 8000 nM

Question: And the IC50 (SF-268)?
Answer: > 8000 nM

Question: What about the IC50 (NY) of the same compound?
Answer: 1850 nM

Question: What about the IC50 (SK-LMS-1) of the same compound?
Answer: > 8000 nM

Question: And the IC50 (KLE)?
Answer: > 8000 nM

Question: What about the IC50 (A388) of the same compound?
Answer: > 8000 nM

Question: And the IC50 (KE-37)?
Answer: > 8000 nM

Question: What about the IC50 (AN3-CA) of the same compound?
Answer: 10.1 nM

Question: And the IC50 (WM-115)?
Answer: 5760 nM

Question: And the IC50 (RD)?
Answer: > 8000 nM

Question: What about the IC50 (EW-3) of the same compound?
Answer: > 8000 nM

Question: What about the IC50 (IST-SL1) of the same compound?
Answer: > 8000 nM

Question: And the IC50 5637?
Answer: > 8000 nM

Question: What about the IC50 (COLO-800) of the same compound?
Answer: > 8000 nM

Question: And the IC50 (ES6)?
Answer: 6030 nM

Question: And the IC50 (HCC1937)?
Answer: > 8000 nM

Question: What about the IC50 (SW982) of the same compound?
Answer: > 8000 nM

Question: What about the IC50 (KS-1) of the same compound?
Answer: > 8000 nM

Question: And the IC50 (LS-123)?
Answer: > 8000 nM

Question: And the IC50 (CAMA-1)?
Answer: > 8000 nM

Question: What about the IC50 (NCI-H1581) of the same compound?
Answer: > 8000 nM
